Data taken from patent US6645918B1, “N-([1,2,4]triazoloazinyl)thiophenesulfonamide compounds and their use as herbicides” (Dow AgroSciences LLC, priority 2000, dated 2003).

Key:
Type in all cases: in vivo
[1] = system: blackgrass (Alopecurus myosuroides); assay: Postemergence herbicidal activity, blackgrass; conditions: 15.6 ppm, foliar spray, visual after 2 weeks; 0 no injury, 100 complete kill
Experimental: (§1) Seeds of the desired test plant species were planted in Grace-Sierra MetroMix® 306 planting mixture, which typically has a pH of 6.0 to 6.8 and an organic matter content of about 30 percent, in plastic pots with a surface area of 64 square centimeters. When required to ensure good germination and healthy plants, a fungicide treatment and/or other chemical or physical treatment was applied. The plants were grown for 7-21 days in a greenhouse with an approximately 15 hr photoperiod which was maintained at about 23-29° C. during the day and 22-28° C. during the night. Nutrients and water were added on a regular basis and supplemental lighting was provided with overhead metal halide 1000 Watt lamps as necessary. The plants were employed for testing when they reached the first or second true leaf stage. A weighed amount of each test compound, determined by the highest rate to be tested, was placed in a 20 mL glass vial and was dissolved in 4 mL of a 97:3 v/v (volume/volume) mixture of acetone and dimethyl sulfoxide to obtain concentrated stock solutions. […] The concentrated stock solutions obtained were diluted with an aqueous mixture containing acetone, water, iso-propyl alcohol, dimethyl sulfoxide, Atplus 411F crop oil concentrate, and Triton X-155 surfactant (methylenebisdiamyl phenoxy polyethoxy ethanol) in a 48.5:39:10:1.5:1.0:0.02 v/v ratio to obtain spray solutions of known concentration. The solutions containing the highest concentration to be tested were prepared by diluting 2 mL aliquots of the stock solution with 13 mL of the mixture and lower concentrations were prepared by dilution of appropriate smaller portions of the stock solution. Approximately 1.5 mL aliquots of each solution of known concentration were sprayed evenly onto each of the test plant pots using a DeVilbiss atomizer driven by compressed air pressure of 2 to 4 psi (140 to 280 kilopascals) to obtain thorough coverage of each plant. Control plants were sprayed in the same manner with the aqueous mixture. In this test an application rate of 1 ppm results in the application of approximately 1 g/ha. The treated plants and control plants were placed in a greenhouse as described above and watered by sub-irrigation to prevent wash-off of the test compounds. After 2 weeks the condition of the test plants as compared with that of the untreated plants was determined visually and scored on a scale of 0 to 100 percent where 0 corresponds to no injury and 100 corresponds to complete kill.

[2] = system: lambsquarters (Chenopodium album); assay: Postemergence herbicidal activity, lambsquarters; conditions: 15.6 ppm, foliar spray, visual after 2 weeks; 0 no injury, 100 complete kill
Experimental: as §1

[3] = system: velvetleaf (Abutilion theophrasti); assay: Preemergence herbicidal activity, velvetleaf; conditions: soil spray, visual after 3 weeks, 0 no injury, 100 complete kill or no germination
Experimental: (§2) The soil matrix was contained in plastic pots with a surface area of 161 square centimeters. When required to ensure good germination and healthy plants, a fungicide treatment and/or other chemical or physical treatment was applied. A weighed amount, determined by the highest rate to be tested, of each test compound was placed in a 20 mL glass vial and was dissolved in 8 mL of a 97:3 v/v (volume/volume) mixture of acetone and dimethyl sulfoxide to obtain concentrated stock solutions. […] The stock solutions obtained were diluted with a 99.9:0.1 mixture of water and Tween® 155 surfactant (ethoxylated sorbitan fatty acid ester) to obtain application solutions of known concentration. The solutions containing the highest concentration to be tested were prepared by diluting 4 mL aliquots of the stock solution with 8.5 mL of the mixture and lower concentrations were prepared by dilution of appropriate smaller portions of the stock solution. A 2.5 mL aliquot of each solution of known concentration was sprayed evenly onto the soil of each seeded pot using a Cornwall 5.0 mL glass syringe fitted with a TeeJet TN-3 hollow cone nozzle to obtain thorough coverage of the soil in each pot. Control pots were sprayed in the same manner with the aqueous mixture. A highest application rate of 4.48 kg/ha is achieved when 50 mg of test compound is employed. The treated pots and control pots were placed in a greenhouse with an approximately 15 hr photoperiod which was maintained at about 23-29° C. during the day and 22-28° C. during the night. Nutrients and water were added on a regular basis and supplemental lighting was provided with overhead metal halide 1000 Watt lamps as necessary. The water was added by top-irrigation. After 3 weeks the condition of the test plants that germinated and grew as compared with that of the untreated plants that germinated and grew was determined visually and scored on a scale of 0 to 100 percent where 0 corresponds to no injury and 100 corresponds to complete kill or no germination.

[4] = system: Rox orange sorghum (Sorghum bicolor); assay: Preemergence herbicidal activity, Rox orange sorghum; conditions: soil spray, visual after 3 weeks, 0 no injury, 100 complete kill or no germination
Experimental: as §2

viola (Viola tricolor) = assay: Postemergence herbicidal activity, viola; conditions: 15.6 ppm, foliar spray, visual after 2 weeks; 0 no injury, 100 complete kill
Experimental: as §1

[5] = system: lambsquarters (Chenopodium album); assay: Preemergence herbicidal activity, lambsquarters; conditions: soil spray, visual after 3 weeks, 0 no injury, 100 complete kill or no germination
Experimental: as §2

[6] = system: pigweed (Amaranthus retroflexus); assay: Preemergence herbicidal activity, pigweed; conditions: soil spray, visual after 3 weeks, 0 no injury, 100 complete kill or no germination
Experimental: as §2

[7] = system: cocklebur (Xanthium strumarium); assay: Preemergence herbicidal activity, cocklebur; conditions: soil spray, visual after 3 weeks, 0 no injury, 100 complete kill or no germination
Experimental: as §2

wild oats (Avena fatua) [8] = assay: Postemergence herbicidal activity, wild oats; conditions: 15.6 ppm, foliar spray, visual after 2 weeks; 0 no injury, 100 complete kill
Experimental: as §1

[9] = system: wild buckwheat (Polygonum convolvulus); assay: Postemergence herbicidal activity, wild buckwheat; conditions: 15.6 ppm, foliar spray, visual after 2 weeks; 0 no injury, 100 complete kill
Experimental: as §1

[10] = system: Rox orange sorghum (Sorghum bicolor); assay: Postemergence herbicidal activity, Rox orange sorghum; conditions: 15.6 ppm, foliar spray, visual after 2 weeks; 0 no injury, 100 complete kill
Experimental: as §1

[11] = system: giant foxtail (Setaria faberi); assay: Postemergence herbicidal activity, giant foxtail; conditions: 15.6 ppm, foliar spray, visual after 2 weeks; 0 no injury, 100 complete kill
Experimental: as §1

[12] = system: cocklebur (Xanthium strumarium); assay: Postemergence herbicidal activity, cocklebur; conditions: 15.6 ppm, foliar spray, visual after 2 weeks; 0 no injury, 100 complete kill
Experimental: as §1

[13] = system: morningglory (Ipomoea hederacea); assay: Preemergence herbicidal activity, morningglory; conditions: soil spray, visual after 3 weeks, 0 no injury, 100 complete kill or no germination
Experimental: as §2

[14] = system: wild poinsettia (Euphorbia heterophylla); assay: Preemergence herbicidal activity, wild poinsettia; conditions: soil spray, visual after 3 weeks, 0 no injury, 100 complete kill or no germination
Experimental: as §2

wild oats (Avena fatua) [15] = assay: Preemergence herbicidal activity, wild oats; conditions: soil spray, visual after 3 weeks, 0 no injury, 100 complete kill or no germination
Experimental: as §2

[16] = system: crabgrass (Digitaria sanguinalis); assay: Preemergence herbicidal activity, crabgrass; conditions: soil spray, visual after 3 weeks, 0 no injury, 100 complete kill or no germination
Experimental: as §2

[17] = system: chickweed (Stellaria media); assay: Postemergence herbicidal activity, chickweed; conditions: 15.6 ppm, foliar spray, visual after 2 weeks; 0 no injury, 100 complete kill
Experimental: as §1

[18] = system: velvetleaf (Abutilion theophrasti); assay: Postemergence herbicidal activity, velvetleaf; conditions: 15.6 ppm, foliar spray, visual after 2 weeks; 0 no injury, 100 complete kill
Experimental: as §1

[19] = system: barnyardgrass (Echinochloa crus-galli); assay: Preemergence herbicidal activity, barnyardgrass; conditions: soil spray, visual after 3 weeks, 0 no injury, 100 complete kill or no germination
Experimental: as §2

[20] = system: giant foxtail (Setaria faberi); assay: Preemergence herbicidal activity, giant foxtail; conditions: soil spray, visual after 3 weeks, 0 no injury, 100 complete kill or no germination
Experimental: as §2

[21] = system: pigweed (Amaranthus retroflexus); assay: Postemergence herbicidal activity, pigweed; conditions: 15.6 ppm, foliar spray, visual after 2 weeks; 0 no injury, 100 complete kill
Experimental: as §1

[22] = system: blackgrass (Alopecurus myosuroides); assay: Preemergence herbicidal activity, blackgrass; conditions: soil spray, visual after 3 weeks, 0 no injury, 100 complete kill or no germination
Experimental: as §2

[23] = system: morningglory (Ipomoea hederacea); assay: Postemergence herbicidal activity, morningglory; conditions: 15.6 ppm, foliar spray, visual after 2 weeks; 0 no injury, 100 complete kill
Experimental: as §1

SMILES	ALOMY postemergence injury score 0-100 [1]	CHEAL postemergence injury score 0-100 [2]	VIOTR postemergence injury score 0-100 (viola (Viola tricolor))	AVEFA postemergence injury score 0-100 (wild oats (Avena fatua) [8])	POLCO postemergence injury score 0-100 [9]	SORBI postemergence injury score 0-100 [10]	SETFA postemergence injury score 0-100 [11]	XANST postemergence injury score 0-100 [12]	STEME postemergence injury score 0-100 [17]	ABUTH postemergence injury score 0-100 [18]	AMARE postemergence injury score 0-100 [21]	IPOHE postemergence injury score 0-100 [23]	also measured
COc1csc(Cl)c1S(=O)(=O)Nc1nc2c(OC)cnc(OC)n2n1 [Compound 18]	70%	90%	100%	95%	95%	100%	90%	100%	90%	85%	100%	75%	ABUTH preemergence injury score 0-100 ([3]; 4.4 g/Ha): 90%; SORBI preemergence injury score 0-100 ([4]; 4.4 g/Ha): 100%; CHEAL preemergence injury score 0-100 ([5]; 4.4 g/Ha): 100%; AMARE preemergence injury score 0-100 ([6]; 4.4 g/Ha): 95%; XANST preemergence injury score 0-100 ([7]; 4.4 g/Ha): 90%; IPOHE preemergence injury score 0-100 ([13]; 4.4 g/Ha): 80%; EPHHL preemergence injury score 0-100 ([14]; 4.4 g/Ha): 90%; AVEFA preemergence injury score 0-100 (wild oats (Avena fatua) [15]; 4.4 g/Ha): 80%; DIGSA preemergence injury score 0-100 ([16]; 4.4 g/Ha): 98%; ECHCG preemergence injury score 0-100 ([19]; 4.4 g/Ha): 100%; SETFA preemergence injury score 0-100 ([20]; 4.4 g/Ha): 100%; ALOMY preemergence injury score 0-100 ([22]; 4.4 g/Ha): 100%
COc1cc(OC)n2nc(NS(=O)(=O)c3cscc3OC)nc2n1 [Compound 15]	80%	90%	70%	95%	80%	100%	100%	90%	90%	70%	90%	70%	ABUTH preemergence injury score 0-100 ([3]; 8.8 g/Ha): 90%; SORBI preemergence injury score 0-100 ([4]; 8.8 g/Ha): 100%; CHEAL preemergence injury score 0-100 ([5]; 8.8 g/Ha): 98%; AMARE preemergence injury score 0-100 ([6]; 8.8 g/Ha): 85%; XANST preemergence injury score 0-100 ([7]; 8.8 g/Ha): 60%; IPOHE preemergence injury score 0-100 ([13]; 8.8 g/Ha): 70%; EPHHL preemergence injury score 0-100 ([14]; 8.8 g/Ha): 90%; AVEFA preemergence injury score 0-100 (wild oats (Avena fatua) [15]; 8.8 g/Ha): 100%; DIGSA preemergence injury score 0-100 ([16]; 8.8 g/Ha): 100%; ECHCG preemergence injury score 0-100 ([19]; 8.8 g/Ha): 80%; SETFA preemergence injury score 0-100 ([20]; 8.8 g/Ha): 100%; ALOMY preemergence injury score 0-100 ([22]; 8.8 g/Ha): 100%
